Measurements as given in article PMC9545004, “Transglutaminase 2 affinity and enzyme‐substrate intermediate stability as determining factors for T‐cell responses to gluten peptides in celiac disease” (European Journal of Immunology, 2022).
Read-outs that look alike come from different tables or passages of the source.

Key:
[1] = tested on: TG2:gluten complexes uptake by TG2-specific B cells (A20, BCR 679-14-E06); test: Inhibition by primary amines of TG2:gluten complex uptake by TG2-specific B cells, flow cytometry; type: cell-based, Murine A20 B lymphoma; recombinant human TG2; settings: for IC50: B-cell
Source text: (§1) Murine A20 B lymphoma cells engineered to express either the celiac patient‐derived TG2‐specific BCR 679‐14‐E06 or the non‐TG2‐specific BCR 693‐2‐F02 as human IgD are previously described. For B‐cell/T‐cell collaboration assays, we used A20 BCR transfectants also transduced to express HLA‐DQ2.5 [27]. Murine BW58α^–β^– cells were retrovirally transduced to express human CD4 as well as the celiac patient‐derived gluten‐specific TCR from a DQ2.5‐glia‐γ1‐reactive T‐cell clone (TCC 4.32) as previously described. The generation of TCR transfectants expressing DQ2.5‐glia‐α2‐reactive TCR (TCC 364.14) and DQ2.5‐glia‐ω2‐reactive TCR (clone 737.30) have been described previously.
B‐cell uptake of gluten peptides was measured essentially as previously described. The following 9‐mer peptides were compared: FITC‐α2, FITC‐ω2, FITC‐γ1, and FITC‐γ3. In brief, A20 cells (300 000/well) expressing TG2‐specific (679‐14‐E06) or non‐TG2 specific BCR (693‐2‐F02) were incubated with recombinant TG2 (final 3 µg/mL), 5 µM FITC peptide, and 2 mM CaCl2 in RPMI at a final volume of 50 µL. Following incubation at 37°C, the TG2 enzymatic activity was quenched by the addition of 100 µL 2 mM EDTA/RPMI at specific timepoints. Cells were washed, fixed in 2% methanol‐free formaldehyde (Invitrogen), resuspended in 2% fetal calf serum (FCS)/PBS, and analyzed by flow cytometry (Attune NxT Flow Cytometer, Thermo Scientific). For each peptide, a delta MFI was calculated by subtracting MFI from non‐TG2 specific A20 cell (unspecific binding) from MFI of TG2‐specific A20 cells. Delta MFI was normalized for each experiment by dividing by the highest delta value per experiment. To assess the contribution and uptake of isopeptide‐linked TG2:gluten complexes, TG2 (3 µg/mL) and FITC‐labelled peptides (5 µM) were preincubated in RPMI with 2 mM CaCl2 at 37°C for 30 min before addition of A20 cells followed by 30 min incubation at 37°C. To examine the effect of TG2 secondary substrates on peptide uptake, the primary amines spermine (Sigma–Aldrich) and biotinylated cadaverine (5‐biotinamido‐pentylamine; 5‐BP, Pierce) were added to the reaction mixture (0.1–1000 µM final concentration), followed by 10 min incubation at 37°C and flow cytometry analysis. The dose‐response curve fitting to find IC50 was done using the “[Inhibitor] vs. response” equation in GraphPad Prism 8.3.0. Of note, the presence of Lysine HCl in RPMI medium represents an experimental constant in our assays that is not accounted for when calculating the competitive effect of amine.

[2] = tested on: TCR-transfectant cells specific for DQ2.5-glia-ω2; test: Inhibition by primary amines of activation of DQ2.5-glia-ω2-specific T cells by TG2-specific B cells, IL-2 ELISA; type: cell-based; settings: for IC50: 5 µM N-ω-gliadin 34-mer, TG2, CaCl2, amine 0-1000 µM, IL-2 ELISA
Source text: as §1
The B‐cell/T‐cell collaboration assays were set up as previously described. To compare the uptake and presentation of different gluten peptides to T cells, A20 cells (5 mill/mL) expressing the TG2‐specific BCR (679‐14‐E06) and HLA DQ2.5 were incubated with recombinant TG2 (final 3 µg/mL) and varying amounts of N‐α‐gliadin 20‐mer, N‐ω‐gliadin 19‐mer, or N‐γ‐gliadin 21‐mer in RPMI supplemented with 2 mM CaCl2. After a 30 min incubation at 37°C the cells were washed with 1% FCS/RPMI and resuspended in 5% FCS/RPMI to give a final 1.5 million cells/mL (150 000/well) followed by 2 h incubation at 37°C. Next, TCR‐transfectant cells specific for either DQ2.5‐glia‐α2, DQ2.5‐glia‐ω2, or DQ2.5‐glia‐γ1 were added (25 000/well), followed by overnight incubation at 37°C. The next day, IL‐2 concentration was measured in the culture supernatant by ELISA as previously described. The responsiveness of different TCR transfectants was assessed in the same way, but without the 30 min incubation with TG2, and using the synthetic deamidated peptides (D‐α‐gliadin 20‐mer, D‐ω‐gliadin 17‐mer, and D‐γ‐gliadin 21‐mer). To assess how TG2 secondary substrate affects peptide uptake and presentation to T cells, TG2‐specific A20 cells expressing DQ2.5 were incubated with TG2, CaCl2, 5 µM N‐ω‐gliadin 34‐mer, or 5 µM N‐α‐gliadin 33‐mer in the presence of primary amines at increasing concentrations (0‐1000 µM), before the addition of TCR‐transfectant cells specific for the DQ2.5‐glia‐α2 or DQ2.5‐glia‐ω2 epitopes. The dose‐response curve fitting to find IC50 was done using the “[Inhibitor] vs. response” equation in GraphPad Prism 8.3.0. To examine whether primary amines directly affect the B cells, TG2‐specific A20 cell expressing DQ2.5 were incubated with primary amines for 30 min and washed, before addition of 2 µM D‐ω‐gliadin 34‐mer, followed by incubation with DQ2.5‐glia‐ω2 TCR transfectants.

[3] = logIC50, inhibition of FITC-α2 uptake, Figure 4
[4] = logIC50, inhibition of FITC-α2 uptake, mean
[5] = logIC50, inhibition of FITC-α2 uptake, replicate Figure S4 A
[6] = logIC50, inhibition of FITC-α2 uptake, replicate Figure S4 B
[7] = logIC50, inhibition of FITC-ω2 uptake, Figure 4
[8] = logIC50, inhibition of FITC-ω2 uptake, mean
[9] = logIC50, inhibition of FITC-ω2 uptake, replicate Figure S4 A
[10] = logIC50, inhibition of FITC-ω2 uptake, replicate Figure S4 B
[11] = DQ2.5-glia-ω2, replicate Figure S5A
[12] = DQ2.5-glia-ω2, replicate Figure S5B
[13] = logIC50, DQ2.5-glia-ω2, Figure 5
[14] = logIC50, DQ2.5-glia-ω2, replicate Figure S5A

IC50 ([1]; 10 min, inhibition of FITC-α2 (5 µM) uptake, TG2 3 µg/mL, 2 mM CaCl2, RPMI, 37°C 10 min, Figure 4, read-out: IC50): 22.7 µM
IC50 ([1]; 10 min, inhibition of FITC-α2 (5 µM) uptake, TG2 3 µg/mL, 2 mM CaCl2, RPMI, 37°C 10 min, mean, read-out: IC50): 42 µM
IC50 ([1]; 10 min, inhibition of FITC-α2 (5 µM) uptake, TG2 3 µg/mL, 2 mM CaCl2, RPMI, 37°C 10 min, replicate Figure S4 A, read-out: IC50): 57.9 µM
IC50 ([1]; 10 min, inhibition of FITC-α2 (5 µM) uptake, TG2 3 µg/mL, 2 mM CaCl2, RPMI, 37°C 10 min, replicate Figure S4 B, read-out: IC50): 45.4 µM
IC50 ([1]; 10 min, inhibition of FITC-ω2 (5 µM) uptake, TG2 3 µg/mL, 2 mM CaCl2, RPMI, 37°C 10 min, Figure 4, read-out: IC50): 20.7 µM
IC50 ([1]; 10 min, inhibition of FITC-ω2 (5 µM) uptake, TG2 3 µg/mL, 2 mM CaCl2, RPMI, 37°C 10 min, mean (spermine: Figure S4 B not included), read-out: IC50): 72 µM
IC50 ([1]; 10 min, inhibition of FITC-ω2 (5 µM) uptake, TG2 3 µg/mL, 2 mM CaCl2, RPMI, 37°C 10 min, replicate Figure S4 A, read-out: IC50): 130 µM
IC50 ([1]; 10 min, inhibition of FITC-ω2 (5 µM) uptake, TG2 3 µg/mL, 2 mM CaCl2, RPMI, 37°C 10 min, replicate Figure S4 B (for spermine not included in the mean), read-out: IC50): 65.6 µM
IC50 ([1]; FITC 9-mer native gluten peptides, average IC50 values, Table S1, read-out: IC50, inhibition of FITC-9-mer peptide uptake (average values)): 26 to 72 µM
IC50 ([2]; DQ2.5-glia-ω2, Figure 5): 60.7 µM
IC50 ([2]; DQ2.5-glia-ω2, mean): 27 µM
IC50 [2, 11]: 13.6 µM
IC50 [2, 12]: 6.79 µM
Structure (SMILES): NCCCCCNC(=O)CCCC[C@@H]1SC[C@@H]2NC(=O)N[C@@H]21 [5-BP, 5‐biotinamido‐pentylamine]
logIC50 ([1]; inhibition of FITC-α2 uptake, Figure 4): 1.36
logIC50 ([1]; inhibition of FITC-α2 uptake, mean): 1.59
logIC50 ([1]; inhibition of FITC-α2 uptake, replicate Figure S4 B): 1.66
logIC50 ([1]; inhibition of FITC-ω2 uptake, Figure 4): 1.32
logIC50 ([1]; inhibition of FITC-ω2 uptake, mean): 1.75
logIC50 ([1]; inhibition of FITC-ω2 uptake, replicate Figure S4 A): 2.11
logIC50 ([1]; inhibition of FITC-ω2 uptake, replicate Figure S4 B): 1.82
log 95% CI lower limit [1, 3]: 1.04
log 95% CI upper limit [1, 3]: 1.71
log 95% CI lower limit [1, 4]: 1.35
log 95% CI upper limit [1, 4]: 1.85
log 95% CI lower limit [1, 5]: 1.52
log 95% CI upper limit [1, 5]: 2.00
log 95% CI lower limit [1, 6]: 1.50
log 95% CI upper limit [1, 6]: 1.82
log 95% CI lower limit [1, 7]: 1.09
log 95% CI upper limit [1, 7]: 1.57
log 95% CI lower limit [1, 8]: 1.48
log 95% CI upper limit [1, 8]: 2.03
log 95% CI lower limit [1, 9]: 1.86
log 95% CI upper limit [1, 9]: 2.38
log 95% CI lower limit [1, 10]: 1.50
log 95% CI upper limit [1, 10]: 2.14
logIC50 ([2]; DQ2.5-glia-ω2, Figure 5): 1.78
logIC50 ([2]; DQ2.5-glia-ω2, mean): 1.25
logIC50 [2, 11]: 1.13
logIC50 [2, 12]: 0.832
log 95% CI lower limit [2, 13]: 1.52
log 95% CI upper limit [2, 13]: 2.04
log 95% CI lower limit ([2]; logIC50, DQ2.5-glia-ω2, mean): 1.23
log 95% CI upper limit ([2]; logIC50, DQ2.5-glia-ω2, mean): 1.57
log 95% CI lower limit [2, 14]: 0.940
log 95% CI upper limit [2, 14]: 1.32
log 95% CI upper limit ([2]; logIC50, DQ2.5-glia-ω2, replicate Figure S5B): 1.36
